Structures are written as SMILES. Calls of active or inactive are those of the source. How the calls were made is not given here.

Our source for the carcinogen call values is PubChem BioAssay AID1259411 (Chemical Carcinogenesis Research Information System (CCRIS), 2018).

The data set deals with rodent carcinogenicity bioassays, tumor incidence. As to the kind of experiment: CCRIS carcinogenicity studies. The gist of the method: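 Archive of carcinogenicity, mutagenicity, tumor promotion and tumor inhibition results drawn from journals, NCI reports and other sources, expert-reviewed; covers 1985-2011 and is no longer updated.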

For `C=CC(=C)CCC=C(C)C`, the carcinogen call (Species: Mouse, Strain/Sex: B6C3F1 / Female (50/Group), Route: Oral, Dose: 0, 0.25, 0.5, 1 g/kg in corn oil, by gavage, 5 d/wk for 104-105 wk, Dose: 0, 0.25, 0.5, 1 g/kg in corn oil, by gavage, 5 d/wk for 104-105 wk) was “inactive; negative. (authors describe results as equivocal based on incidences of hepatoce”; the carcinogen call (Species: Mouse, Strain/Sex: B6C3F1 / Male (50/Group), Route: Oral, Dose: 0, 0.25, 0.5, 1 g/kg in corn oil, by gavage, 5 d/wk for 104-105 wk, Dose: 0, 0.25, 0.5, 1 g/kg in corn oil, by gavage, 5 d/wk for 104-105 wk, Tumor Site: Type of Lesion: Liver: hepatocellular adenoma (26/50, 41/50, 43/50), hepatocellular carcinoma (14/50, 20/50, 28/50), hepatocellular aden, Tumor Site: Type of Lesion: Liver: hepatocellular adenoma (26/50, 41/50, 43/50), hepatocellular carcinoma (14/50, 20/50, 28/50), hepatocellular aden) was “active; positive (authors describe as clear evidence)”; the carcinogen call (Species: Rat, Strain/Sex: F344/N / Female (50/Group), Route: Oral, Dose: 0, 0.25, 0.5, 1 g/kg in corn oil, by gavage, 5 d/wk for 105 wk, Dose: 0, 0.25, 0.5, 1 g/kg in corn oil, by gavage, 5 d/wk for 105 wk) is “inactive; negative. (authors describe findings as equivocal based on renal tubule adenoma”; the carcinogen call (Species: Rat, Strain/Sex: F344/N / Male (50/Group), Route: Oral, Dose: 0, 0.25, 0.5, 1 g/kg in corn oil, by gavage, 5 d/wk for 105 wk, Dose: 0, 0.25, 0.5, 1 g/kg in corn oil, by gavage, 5 d/wk for 105 wk, Tumor Site: Type of Lesion: Kidney: renal tubule adenoma (standard evaluation - 0/50, 4/50, 8/50, standard and extended evaluations combined - 0/50) is “active; positive (authors describe as clear evidence)”.
As for `CCCc1ccc2c(c1)OCO2`, the carcinogen call runs as follows: (Species: MOUSE, Route: ORAL, Tumor Site: Type of Lesion: LIVER, LUNG) “active; positive”; (Species: RAT, Route: ORAL, Tumor Site: Type of Lesion: ESOPHAGUS) “active; positive”.
Take `CC1=C(C(=O)Nc2ccccc2)SCCO1`: the carcinogen call by setting is: (Species: Mouse, Strain/Sex: Charles River/Female (50 per group in experimental animals; 75 controls), Route: Oral, Dose: 0, 50, 2,500, 5,000 ppm in diet for 19 mo, Dose: 0, 50, 2,500, 5,000 ppm in diet for 19 mo) “inactive; negative (purity >99%; study details not given in source)”; (Species: Mouse, Strain/Sex: Charles River/Male (50 per group in experimental animals; 75 controls), Route: Oral, Dose: 0, 50, 2,500, 5,000 ppm in diet for 19 mo, Dose: 0, 50, 2,500, 5,000 ppm in diet for 19 mo, Tumor Site: Type of Lesion: LUNG, Pulmonary adenomas and alveolar-bronchiolar adenomas (34% in high dose group vs 17% in controls; significant), Tumor Site: Type of Lesion: LUNG, Pulmonary adenomas and alveolar-bronchiolar adenomas (34% in high dose group vs 17% in controls; significant)) “active; positive (purity >99%; study details not given in source)”; (Species: Rat, Strain/Sex: Crl:CD SD/Female (50 per group), Route: Oral, Dose: 0, 20, 300, 600 ppm in diet for 102 wk, Dose: 0, 20, 300, 600 ppm in diet for 102 wk) “inactive; negative (purity 97.7%; study details not given in source)”; (Species: Rat, Strain/Sex: Crl:CD SD/Male (50 per group), Route: Oral, Dose: 0, 20, 200, 400 ppm in diet for 102 wk, Dose: 0, 20, 200, 400 ppm in diet for 102 wk) “inactive; negative (purity 97.7%; study details not given in source)”.
Turning to `OCc1c2ccccc2c2ccc3cccc4ccc1c2c43`, the carcinogen call is “active; positive” (Species: MOUSE, Strain/Sex: B6C3F1/MALE, Route: INTRAPERITONEAL, Dose: 0, 0.0025, 0.005, 0.015 UMOL/G ONCE AT 12 DAYS OF AGE (STUDY DURATION: 10 MO), Dose: 0, 0.0025, 0.005, 0.015 UMOL/G ONCE AT 12 DAYS OF AGE (STUDY DURATION: 10 MO), Tumor Site: Type of Lesion: LIVER: HEPATOMA) and “active; positive” (Species: RAT, Strain/Sex: SPRAGUE-DAWLEY/FEMALE, Route: SUBCUTANEOUS, Dose: 0, 0.2 UMOL 3/WK FOR 20 DOSES (STUDY DURATION: 52 WK), Tumor Site: Type of Lesion: INJECTION SITE: SARCOMA).
With `O.O=C([O-])c1ccccn1.O=C([O-])c1ccccn1.O=C([O-])c1ccccn1.[Cr+3]`, the carcinogen call is “inactive; negative” (Species: Mouse, Strain/Sex: B6C3F1 /Female (50/Group), Route: Oral, Dose: 0, 2000, 10,000, 50,000 ppm (average daily doses of 0; 240; 1200; 6100 mg/kg) in diet for 105 wk, Dose: 0, 2000, 10,000, 50,000 ppm (average daily doses of 0; 240; 1200; 6100 mg/kg) in diet for 105 wk); “inactive; negative” (Species: Mouse, Strain/Sex: B6C3F1/Female (50/Group), Route: Oral, Dose: 0, 2,000, 10,000, 50,000 ppm in diet for 105 wk (Study duration: 105 wk), Dose: 0, 2,000, 10,000, 50,000 ppm in diet for 105 wk (Study duration: 105 wk)); “inactive; negative” (Species: Mouse, Strain/Sex: B6C3F1/Male (50/Group), Route: Oral, Dose: 0, 2000, 10,000, 50,000 ppm (average daily doses of 0; 250; 1200; 6565 mg/kg) in diet for 105 wk, Dose: 0, 2000, 10,000, 50,000 ppm (average daily doses of 0; 250; 1200; 6565 mg/kg) in diet for 105 wk); “inactive; negative” (Species: Mouse, Strain/Sex: B6C3F1/Male (50/Group), Route: Oral, Dose: 0, 2,000, 10,000, 50,000 ppm in diet for 105 wk (Study duration: 105 wk), Dose: 0, 2,000, 10,000, 50,000 ppm in diet for 105 wk (Study duration: 105 wk)); “inactive; negative” (Species: Rat, Strain/Sex: F344/N / Female (50/Group), Route: Oral, Dose: 0, 2000, 10,000, 50,000 ppm (average daily doses of 0; 100; 510; 2630 mg/kg) in diet for 105 wk, Dose: 0, 2000, 10,000, 50,000 ppm (average daily doses of 0; 100; 510; 2630 mg/kg) in diet for 105 wk); “inactive; negative” (Species: Rat, Strain/Sex: F344/N / Female (50/Group), Route: Oral, Dose: 0, 2,000, 10,000, 50,000 ppm in diet for 105 wk (Study duration: 105 wk), Dose: 0, 2,000, 10,000, 50,000 ppm in diet for 105 wk (Study duration: 105 wk)). For the same compound, the carcinogen call (Species: Rat, Strain/Sex: F344/N / Male (50/Group), Route: Oral, Dose: 0, 2000, 10,000, 50,000 ppm (average daily doses of 0; 90; 460; 2400 mg/kg) in diet for 105 wk, Dose: 0, 2000, 10,000, 50,000 ppm (average daily doses of 0; 90; 460; 2400 mg/kg) in diet for 105 wk, Tumor Site: Type of Lesion: Preputial gland: adenoma (1/50, 1/50, 7/50, 4/50)) is “equivocal” and the carcinogen call (Species: Rat, Strain/Sex: F344/N / Male (50/Group), Route: Oral, Dose: 0, 2,000, 10,000, 50,000 ppm in diet for 105 wk (Study duration: 105 wk), Dose: 0, 2,000, 10,000, 50,000 ppm in diet for 105 wk (Study duration: 105 wk), Tumor Site: Type of Lesion: Preputial gland: adenoma (1, 1, 7, 4; P</=0.05 at 10,000 ppm only)) is “inactive; negative. authors describe as equivocal evidence of carcinogenicity”.
In the case of `CC(=O)CNCC(O)C(O)N=O` (configuration not stated), the carcinogen call (Species: RAT, Strain/Sex: F344/FEMALE, Route: ORAL, Dose: 0, 15, 60 MG/L DRINKING WATER 5 D/WK FOR 31, 24 WK (TOTAL DOSE 47; 144 MG) (STUDY DURATION: LIFESPAN), Dose: 0, 15, 60 MG/L DRINKING WATER 5 D/WK FOR 31, 24 WK (TOTAL DOSE 47; 144 MG) (STUDY DURATION: LIFESPAN), Tumor Site: Type of Lesion: ESOPHAGUS: CARCINOMA, PAPILLOMA, FORESTOMACH: CARCINOMA, PAPILLOMA, LUNG: TUMOR, TONGUE: CARCINOMA, PAPILLOMA, Tumor Site: Type of Lesion: ESOPHAGUS: CARCINOMA, PAPILLOMA, FORESTOMACH: CARCINOMA, PAPILLOMA, LUNG: TUMOR, TONGUE: CARCINOMA, PAPILLOMA) was “active; positive”.
In the case of `O=C(O)[C@H]1O[C@@H](Nc2ccc3c(c2)Cc2ccccc2-3)[C@H](O)[C@@H](O)[C@@H]1O`, the carcinogen call (Species: RAT, Strain/Sex: F344/MALE, Route: INJECTION, Dose: 0;1 UMOL IN 0.5 ML OF SOLUTION CONTAINING 0.4 ML PHOSPHATE BUFFERED SALINE/ GENTAMYCIN (PH 7) AND 0.1 ML DMSO INJECTED I) is “inactive; negative”.
